Data taken from US5512549A, “Glucagon-like insulinotropic peptide analogs, compositions, and methods of use” (Eli Lilly and Company, priority 1994, dated 1996).

Columns and labels:
[1] = system: beagles; assay: Dog I.V. Hyperglycemic (150 mg/dl) Clamp Test; type: in vivo; settings: I.V. 1.0 μg/kg
Description: a) Hyperglycemic Clamp Studies
Experiments were conducted in overnight-fasted, conscious, adult (1-2 years of age) male and female beagles weighing 8-15 kg. At least ten days prior to the study, animals were anesthetized with isoflurane, and a cut-down was made in the left or right inguinal region. Silastic catheters were inserted into the femoral artery and the proximal caudal femoral vein and secured with 4-0 silk suture. The free ends of the catheters were passed subcutaneously to the back using a trocar needle. The catheters were then filled with a glycerol/heparin solution (3:1, v/v; final heparin concentration of 250 KIU/ml), and the free ends were knotted and placed in a subcutaneous pocket to allow complete closure of the skin. Keflex® was administered both pre-operatively (20 mg/kg, IV and 20 mg/kg, I.M.) and post-operatively (250 mg, p.o. once daily for seven days) to prevent infections. Torbugesic (1.5 mg/kg, I.M.) was administered post-operativelyto control pain.
Blood was drawn just prior to the study day to determine the health of the animal. Only animals with hematocrits above 38% and leukocyte counts below 16,000/mm^3 were used.
The afternoon before the experiment, the free ends of the catheters were exteriorized from the subcutaneous pocket through a small incision made under local anesthesia (2% lidocaine), and the dog was fitted with a tether system jacket and collar assembly.
The morning of the experiment, the contents of the catheters were aspirated, the catheters were flushed with saline, and extension lines (protected by a stainless steel tether) were attached to the catheters. On mornings of IV injection experiments, an over-the-needle, teflon catheter was inserted percutaneously into a cephalic vein in preparation for the administration of an IV bolus of test substance. The dog was placed in a metabolic cage, and the catheter extension lines and tether were attached to a swivel system to allow the dog to move freely about the cage. At this time (-60 minutes), an exogenous infusion of glucose (50% w/v in water) was begun through the chronic venous catheter. Glucose was infused in a descending stepwise fashion over the first six minutes of the study to rapidly raise the plasma glucose concentration to 150 mg/dl. Plasma glucose concentrations were determined every 2.5 to 7.5 minutes throughout the remainder of the study, and the glucose infusion rate was adjusted appropriately to maintain the plasma glucose concentration at 150 mg/dl.
Sixty minutes after the start of the glucose infusion (time 0), test substance was administered either intravenously (1.0, 2.9, 5.0 or 10.0 μg/kg; dose dissolved in 2 ml of saline containing 0.3% dog albumin, w/v) through the previously inserted teflon catheter or subcutaneously (10 μg/kg; 150 μM in phosphate buffered saline) in the dorsal aspect of the neck.
Arterial blood samples (3.5 ml) were taken at -30, -15, 0, 2.5, 5, 7.5, 10, 12.5, 15, 20, 30, 45, 60, 75, 90, 105 and 120 minutes during the IV studies and at -30, -15, 0, 3, 6, 9, 12, 15, 20, 30, 45, 60, 75, 90, 105 and 120 minutes during the SC studies. Samples were collected in vacuum blood collection tubes containing disodium EDTA and immediately placed on ice. To prevent proteolytic cleavage of GLP-1(7-37) in the plasma samples, 1.5 ml of the EDTA containing blood were transferred to a polypropylene tube containing 40 μl of aprotinin (10,000 KIU/ml) and mixed well. The samples were centrifuged, and the resulting plasma was transferred to polypropylene test tubes and stored on ice for the duration of the study.
At the conclusion of the experiment, the animal was anesthetized (isoflurane); the catheters were flushed with fresh saline and filled with the glycerol/heparin mixture; the free ends of the catheters were knotted and placed subcutaneously as described earlier; and antibiotic was administered (300 mg Keflex®, I.M.). […]

[2] = system: Sprague Dawley or Zucker Diabetic Fatty rats; assay: Rat IV Glucose (1 g/kg) Tolerance Test; type: in vivo; settings: for Insulin Change AUC: 0-15 min
Description: a) Glucose Tolerance Tests
Experiments were conducted in overnight-fasted, conscious, male Sprague Dawley (Charles River) or Zucker Diabetic Fatty (Genetic Models, Inc.) rats weighing approximately 250 (Sprague Dawley rats) or 300 (Zucker Diabetic Fatty rats) grams. Four to five days prior the study, rats were anesthetized with isoflurane, and a polyethylene (PE50) catheter was inserted into the right jugular vein. The catheter was secured with a wound clip, filled with saline containing heparin (2% sodium heparin), and closed with a small stainless steel plug.
After a sixteen-hour fast, twelve chronically cannulated rats were separated into four groups of three rats per group. 0.4 ml of blood was taken from the tail vein, collected into a microtainer tube containing lithium heparin, and immediately placed on ice (zero minute sample). A glucose bolus (1.0 g/kg; 50% glucose (w/v) in water) was administered via the indwelling jugular cannula, and the cannula was rinsed with 200 μl of saline. Twenty seconds later a bolus of test substance 100 μl/100 g body weight of either vehicle (saline containing 0.3% (w/v) bovine serum albumin) or vehicle containing analog! was administered through the jugular cannula, and the cannula was rinsed as before. Rats were bled from the tail again at 2, 5, 10, 20 and 30 minutes after the administration of the glucose bolus, and the samples were treated as described above. At the end of the experiment, blood samples were centrifuged, and the plasma was collected.
Plasma glucose concentrations were determined the day of the experiment using a coupled hexokinase procedure in a clinical chemistry analyzer. Plasma for insulin determinations were diluted with zero calibrator and frozen at -20° C. until time for analysis. Insulin concentrations were determined using a commercial radioimmunoassay kit with rat insulin as the standard.
Insulin change (the change in insulin from the baseline value) was calculated as the difference between the insulin concentration at time t and the insulin concentration at zero time. The area under the insulin change curve was calculated using the trapezoidal rule. Plasma glucose change (the increase in plasma glucose above the baseline value) was calculated as the difference between the plasma glucose concentration at time t and the plasma glucose concentration at zero time. The area under the plasma glucose change curve was calculated using the trapezoidal rule. Values are listed as the mean ± the standard error of the mean (SEM).

| Substance | GIR Change AUC ([1]; 0-60 min, mean ± SEM) | Insulin Change AUC ([1]; 0-60 min, mean ± SEM) | Max Insulin Change ([1]; 120 minute test period, mean ± SEM) | Duration of Insulin Effect ([1]; time average insulin change consistently ≥0.5 ng/ml) | Insulin Change at 10 min ([2]; IV dose 0.6 mg/kg) | Max Insulin Change ([2]; IV dose 0.6 mg/kg) | Insulin Change AUC ([2]; IV dose 0.6 mg/kg) | Insulin Change at 10 min ([2]; IV dose 1.2 mg/kg) | Max Insulin Change ([2]; IV dose 1.2 mg/kg) | Insulin Change AUC ([2]; IV dose 1.2 mg/kg) | Insulin Change at 10 min ([2]; IV dose 0.92 mg/kg) | Max Insulin Change ([2]; IV dose 0.92 mg/kg) | Insulin Change AUC ([2]; IV dose 0.92 mg/kg) |
| --- | --- | --- | --- | --- | --- | --- | --- | --- | --- | --- | --- | --- | --- |
| Lys^34 -N^ε -octanoyl-GLP-1(7-37)OH [Lys^34-N^ε-octanoyl-GLP-1(7-37)OH] | 463 ± 12 mg/kg | 50 ± 2 ng·min/mL | 3.8 ± 1.0 ng/mL | 15 min | 1.3 ng/mL | 5.0 ng/mL | 33 ± 8 ng·min/mL | 10.0 ng/mL | 13.1 ng/mL | 136 ± 30 ng·min/mL | – | – | – |
| GLP-1(7-37)OH | – | – | – | – | 5.4 ng/mL | 7.8 ng/mL | 79 ± 8 ng·min/mL | 4.2 ng/mL | 8.4 ng/mL | 77 ± 17 ng·min/mL | 3.5 ng/mL | 8.4 ng/mL | 75 ± 12 ng·min/mL |
